Patent US20250388605A1, “HETEROBIFUNCTIONAL COMPOUNDS AND METHODS OF TREATING DISEASE” (Halda Therapeutics OpCo, Inc., priority 2022, published 2025)

Tests used:
[1] = test system: T-Rex 293 cell line SC3 cells having increased expression of androgen receptor protein due to exposure to doxycycline; assay: Cellular growth inhibition, T-Rex 293 SC3 cells with doxycycline (increased androgen receptor expression), CellTiter-Glo; type: cell-based; details: T-Rex 293 SC3 cells with 10 ng/mL doxycycline (increased androgen receptor expression), 72 hours, CellTiter-Glo 2.0
Procedure: (§1) The following types of cells were prepared for this experiment: (i) a T-Rex 293 cell line having increased expression of androgen receptor protein due to exposure to doxycycline and (ii) a T-Rex 293 cell line lacking increased expression of androgen receptor protein. Ability of the test compounds to inhibit proliferation of the foregoing cell types was evaluated according to the procedures set forth below.
(§2) The doxycycline-inducible androgen receptor protein expressing cell line was established using the following protocol: T-Rex 293 cells were purchased from Invitrogen (Cat #R71007) and transfected using Lipofectamine 2000 with the wild-type androgen receptor protein sequence cloned into the pcDNA4/TO vector. Transfected cells were selected using 400 μg/mL Zeocin (Invitrogen Cat #R25001). Following selection, single clones were raised and maintained in Dulbecco's Modified Eagle Medium (DMEM) supplemented with 10% w/w Tetracycline-free fetal bovine serum (FBS) and 250 μg/mL Zeocin. Clones were analyzed for expression of androgen receptor protein in the presence and absence of 10 ng/mL doxycycline (Sigma Cat #D9891), and a single doxycycline-inducible clone (hereinafter “SC3”) was selected for use in downstream assays.
(§3) The SC3 cells were seeded on poly-D-lysine coated, black clear-bottom 384-well plates at 2500/well, in 25 μL Phenol Red Free Dulbecco's Modified Eagle Medium (DMEM) supplemented with 10% w/w charcoal-dextran treated fetal bovine serum (FBS) and 1% w/w pen-strep, with or without 10 ng/mL doxycycline. Pen-Strep is a commercially available mixture of penicillin G and streptomycin, which is used in mammalian cell culture media to prevent bacterial contamination. Phenol Red Free Dulbecco's Modified Eagle Medium (DMEM) supplemented with 10% w/w charcoal-dextran treated fetal bovine serum (FBS) and 1% w/w pen-strep, with or without 10 ng/mL doxycycline is herein referred to as Treatment Medium. Following seeding of cells in the plates, the plates were spun at 300×g for 30 seconds, then equilibrated to room temperature for 30 minutes, and then deposited in a humidified tissue culture incubator maintained at 37° C. with 5% CO2.
(§4) At 24 hours after seeding of the cells, dilutions of test compound were prepared in DMSO and dissolved in Treatment Medium, to achieve a final DMSO concentration of 0.5% w/w, thereby providing the Test Compound Solution. A 25 μL aliquot of the Test Compound Solution was added to cells in the well plates. An equal volume of a solution containing DMSO and Treatment Medium was used as a negative control. Following treatment of cells with Test Compound Solution or said equal volume of a solution containing DMSO and Treatment Medium, the plates were spun at 300×g for 30 seconds, and then left in an incubator for 72 hours.
(§5) At the end of the treatment duration, cell viability was quantified with CellTiter-Glo 2.0 reagent (Promega Cat #G9243). For this purpose, plates were equilibrated to room temperature for 30 minutes, and then 25 μL of CellTiter-Glo 2.0 reagent was added to cells in the plate wells. Plates were then agitated on a shaker for two minutes at 500 rpm and subsequently incubated at room temperature for 10 minutes. Following incubation, the plates were spun at 3000×g for 30 seconds, then sealed with an optical adhesive cover, and luminescence readings were measured with an EnVision Plate Reader.
(§6) Data was normalized using zero luminescence for baseline. A four-parameter non-linear regression curve fit was applied to dose-response data in GraphPad Prism data analysis software to determine the half-maximal growth inhibitory concentration (GI50) for each test compound.

[2] = test system: T-Rex 293 cell line SC3 cells lacking increased expression of androgen receptor protein; assay: Cellular growth inhibition, T-Rex 293 SC3 cells without doxycycline (no increased androgen receptor expression), CellTiter-Glo; type: cell-based; details: T-Rex 293 SC3 cells not exposed to doxycycline (no increased androgen receptor expression), 72 hours
Procedure: as §1, §2, §3, §4, §5, §6

[3] = test system: VCaP cells; assay: Cellular growth inhibition assay for VCaP cells, CellTiter-Glo; type: cell-based, human; details: 72 hours
Procedure: VCaP cells were purchased from American Type Cell Culture (ATCC Cat #CRL2876) and then seeded on poly-D-lysine coated, black clear-bottom 384-well plates at 5000/well in 25 μL Dulbecco's Modified Eagle Medium (DMEM) supplemented with 10% w/w Fetal bovine serum (FBS) and 1% w/w Pen-Strep. Pen-Strep is a commercially available mixture of penicillin G and streptomycin, which is used in mammalian cell culture media to prevent bacterial contamination. Dulbecco's Modified Eagle Medium (DMEM) supplemented with 10% w/w fetal bovine serum (FBS) and 1% w/w Pen-Strep is herein referred to as Treatment Medium. Following seeding of cells in the plates, the plates were spun at 300×g for 30 seconds, then equilibrated to room temperature for 30 minutes, and then deposited in a humidified tissue culture incubator maintained at 37° C. with 5% CO2.
as §4, §5, §6

Row | GI50 ([3]; Homo sapiens) | GI50 [3] | Compound | GI50 [1] | GI50 [2]
1 | < 0.5 µM |  | CCS(=O)(=O)Nc1ccc(Oc2cccc(OCCNC3CCN(c4ncc(C(=O)N[C@H]5C(C)(C)[C@H](Oc6ccc(C#N)c(Cl)c6)C5(C)C)cn4)CC3)c2)c(-c2cn(C)c(=O)c3[nH]ccc23)c1 [Compound I-85] | < 0.5 µM | 0.5 to 1.5 µM
2 |  | < 0.5 µM | CCS(=O)(=O)Cc1ccc(Oc2cccc(CCOC3CCN(c4ncc(C(=O)N[C@H]5C(C)(C)[C@H](Oc6ccc(C#N)c(Cl)c6)C5(C)C)cn4)CC3)c2)c(-c2cn(C)c(=O)c3[nH]ccc23)c1 [Compound I-159] | < 0.5 µM | < 0.5 µM
3 |  |  | CCS(=O)(=O)Nc1ccc(Oc2cccc(OCCOCCOCCOCCOCCOCCOCCN(C)c3ncc(C(=O)N[C@H]4C(C)(C)[C@H](Oc5ccc(C#N)c(Cl)c5)C4(C)C)cn3)c2)c(-c2cn(C)c(=O)c3[nH]ccc23)c1 [Compound I-4] | < 0.5 µM | < 0.5 µM
4 | < 0.5 µM |  | CCS(=O)(=O)Nc1ccc(Oc2cccc(C(=O)N(C)CCOC3CCN(c4ncc(C(=O)N[C@H]5C(C)(C)[C@H](Oc6ccc(C#N)c(Cl)c6)C5(C)C)cn4)CC3)c2)c(-c2cn(C)c(=O)c3[nH]ccc23)c1 [Compound I-66, N-((1r, 3r)-3-(3-chloro-4-cyanophenoxy)-2,2,4,4-tetramethylcyclobutyl)-2-(4-(2-(3-(4-(ethylsulfonamido)-2-(6-methyl-7-oxo-6,7-dihydro-1H-pyrrolo[2,3-c]pyridin-4-yl)phenoxy)-N-methylbenzamido)ethoxy)piperidin-1-yl)pyrimidine-5-carboxamide] | < 0.5 µM | > 3 µM
5 |  | < 0.5 µM | CCS(=O)(=O)Nc1ccc(Oc2cccc(N(CCN(C)C3CCN(c4ncc(C(=O)N[C@H]5C(C)(C)[C@H](Oc6ccc(C#N)c(Cl)c6)C5(C)C)cn4)CC3)C(C)C)c2F)c(-c2cn(C)c(=O)c3[nH]ccc23)c1 [Compound I-183] | < 0.5 µM | < 0.5 µM
6 |  | < 0.5 µM | Cn1cc(-c2cc(NS(=O)(=O)C3CC3)ccc2Oc2cccc(CCCN3CCN(c4ncc(C(=O)N[C@H]5C(C)(C)[C@H](Oc6ccc(C#N)c(Cl)c6)C5(C)C)cn4)CC3)c2F)c2cc[nH]c2c1=O [Compound I-135] | < 0.5 µM | > 3 µM
7 | < 0.5 µM |  | CCS(=O)(=O)Nc1ccc(Oc2cccc(OCCN3CCN(CC4CCN(c5ncc(C(=O)N[C@H]6C(C)(C)[C@H](Oc7ccc(C#N)c(Cl)c7)C6(C)C)cn5)CC4)CC3)c2)c(-c2cn(C)c(=O)c3[nH]ccc23)c1 [Compound I-32] | < 0.5 µM | < 0.5 µM
8 | < 0.5 µM |  | CCS(=O)(=O)Nc1ccc(Oc2cccc(N(C)CCOC3CCN(c4ncc(C(=O)N[C@H]5C(C)(C)[C@H](Oc6ccc(C#N)c(Cl)c6)C5(C)C)cn4)CC3)c2)c(-c2cn(C)c(=O)c3[nH]ccc23)c1 [Compound I-113] | < 0.5 µM | < 0.5 µM
9 | < 0.5 µM |  | CCS(=O)(=O)Nc1ccc(Oc2cccc(OCCN3CCN(c4ncc(C(=O)N[C@H]5C(C)(C)[C@H](Oc6ccc(C#N)c(Cl)c6)C5(C)C)cn4)CC3)c2)c(-c2cn(C)c(=O)c3[nH]ccc23)c1 [Compound I-77] | < 0.5 µM | < 0.5 µM
10 |  |  | CCS(=O)(=O)Nc1ccc(Oc2cccc(OCCOCCOCCN(C)c3ncc(C(=O)N[C@H]4C(C)(C)[C@H](Oc5ccc(C#N)c(Cl)c5)C4(C)C)cn3)c2)c(-c2cn(C)c(=O)c3[nH]ccc23)c1 [Compound I-2] | < 0.5 µM | 1.5 to 3 µM
11 |  | < 0.5 µM | Cn1cc(-c2cc(NS(=O)(=O)C3CC3)ccc2Oc2cccc(CCOC3CCN(c4ncc(C(=O)N[C@H]5C(C)(C)[C@H](Oc6ccc(C#N)c(Cl)c6)C5(C)C)cn4)CC3)c2F)c2cc[nH]c2c1=O [Compound I-136] | < 0.5 µM | < 0.5 µM
12 | < 0.5 µM |  | CCS(=O)(=O)Nc1ccc(Oc2cccc(CCCOC3CCN(c4ncc(C(=O)N[C@H]5C(C)(C)[C@H](Oc6ccc(C#N)c(Cl)c6)C5(C)C)cn4)CC3)c2)c(-c2cn(C)c(=O)c3[nH]ccc23)c1 [Compound I-20] | < 0.5 µM | < 0.5 µM
13 | < 0.5 µM |  | CCS(=O)(=O)Nc1ccc(Oc2cccc(OCCCOCCCOC3CCN(c4ncc(C(=O)N[C@H]5C(C)(C)[C@H](Oc6ccc(C#N)c(Cl)c6)C5(C)C)cn4)CC3)c2)c(-c2cn(C)c(=O)c3[nH]ccc23)c1 [Compound I-12] | < 0.5 µM | < 0.5 µM
14 | < 0.5 µM |  | CCS(=O)(=O)Nc1ccc(Oc2cccc(OCCOC3CCN(c4ccc(C(=O)N[C@H]5C(C)(C)[C@H](Oc6ccc(C#N)c(Cl)c6)C5(C)C)nn4)CC3)c2F)c(-c2cn(C)c(=O)c3[nH]ccc23)c1 [Compound I-162] | < 0.5 µM | > 3 µM
15 | < 0.5 µM |  | CCS(=O)(=O)Nc1ccc(Oc2cccc(OCCCOCCOC3CCN(c4ncc(C(=O)N[C@H]5C(C)(C)[C@H](Oc6ccc(C#N)c(Cl)c6)C5(C)C)cn4)CC3)c2)c(-c2cn(C)c(=O)c3[nH]ccc23)c1 [Compound I-14] | < 0.5 µM | 0.5 to 1.5 µM
16 | < 0.5 µM |  | CCS(=O)(=O)c1ccc(Oc2cccc(OCCOC3CCN(c4ncc(C(=O)N[C@H]5C(C)(C)[C@H](Oc6ccc(C#N)c(Cl)c6)C5(C)C)cn4)CC3)c2)c(-c2cn(C)c(=O)c3[nH]ccc23)c1 [Compound I-55, N-((1r, 3r)-3-(3-chloro-4-cyanophenoxy)-2,2,4,4-tetramethylcyclobutyl)-2-(4-(2-(3-(4-(ethylsulfonyl)-2-(6-methyl-7-oxo-6,7-dihydro-1H-pyrrolo[2,3-c]pyridin-4-yl)phenoxy)phenoxy)ethoxy)piperidin-1-yl)pyrimidine-5-carboxamide] | < 0.5 µM | < 0.5 µM
17 |  | < 0.5 µM | Cn1cc(-c2cc(C(C)(C)O)ccc2Oc2ccc(N3CC4(CCN(c5cnc(C(=O)N[C@H]6C(C)(C)[C@H](Oc7ccc(C#N)c(Cl)c7)C6(C)C)cn5)CC4)C3)cc2)c2cc[nH]c2c1=O [Compound I-352] | < 0.5 µM | > 3 µM
18 | < 0.5 µM |  | CCS(=O)(=O)Cc1ccc(Oc2cccc(CCCOC3CCN(c4ncc(C(=O)N[C@H]5C(C)(C)[C@H](Oc6ccc(C#N)c(Cl)c6)C5(C)C)cn4)CC3)c2F)c(-c2cn(C)c(=O)c3[nH]ccc23)c1 [Compound I-184] | < 0.5 µM | < 0.5 µM
19 | < 0.5 µM |  | CCS(=O)(=O)Cc1ccc(Oc2cccc(OCCOC3CCN(c4ccc(C(=O)N[C@H]5C(C)(C)[C@H](Oc6ccc(C#N)c(Cl)c6)C5(C)C)cn4)CC3)c2F)c(-c2cn(C)c(=O)c3[nH]ccc23)c1 [Compound I-166] | < 0.5 µM | < 0.5 µM
20 |  | < 0.5 µM | CCS(=O)(=O)Cc1ccc(Oc2cccc(CCOC3CCN(c4ncc(C(=O)N[C@H]5C(C)(C)[C@H](Oc6ccc(C#N)c(Cl)c6)C5(C)C)cn4)CC3)c2F)c(-c2cn(C)c(=O)c3[nH]ccc23)c1 [Compound I-160] | < 0.5 µM | < 0.5 µM
21 | < 0.5 µM |  | CCC(=O)N(C)c1ccc(Oc2cccc(OCCOC3CCN(c4ncc(C(=O)N[C@H]5C(C)(C)[C@H](Oc6ccc(C#N)c(Cl)c6)C5(C)C)cn4)CC3)c2)c(-c2cn(C)c(=O)c3[nH]ccc23)c1 [Compound I-60] | < 0.5 µM | > 3 µM
